Legend:
[1] = system: barnyardgrass; test: Test A pre-/postemergence herbicide test; format: in vivo, Echinochloa crus-galli
Outline: (§1)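 Pre: seeded sandy loam, directed soil spray, compound in non-phytotoxic solvent + surfactant. Post: 1–2-leaf plants (2–10 cm), sprayed to runoff. Greenhouse ~10 d; visual injury vs untreated, 0–100 scale.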

[2] = system: large crabgrass; test: Test A pre-/postemergence herbicide test; format: in vivo, Digitaria sanguinalis
Outline: as §1

[3] = system: giant foxtail; test: Test A pre-/postemergence herbicide test; format: in vivo, Setaria faberi
Outline: as §1

[4] = system: morningglory; test: Test A pre-/postemergence herbicide test; format: in vivo, Ipomoea spp.
Outline: as §1

[5] = system: redroot pigweed; test: Test A pre-/postemergence herbicide test; format: in vivo, Amaranthus retroflexus
Outline: as §1

[6] = system: velvetleaf; test: Test A pre-/postemergence herbicide test; format: in vivo, Abutilon theophrasti
Outline: as §1

[7] = system: barnyardgrass; test: Test B pre-/postemergence herbicide test; format: in vivo, Echinochloa crus-galli; conditions: for Barnyardgrass plant response rating: postemergence, visual rating, scale 0 (no effect) to 100 (complete control)
Outline: (§2)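 Evaluation is visual, comparing treated with control plants on a scale where 0 means no effect and 100 means full control. Treatments were preemergence, or postemergence on seedlings 2–18 cm tall, and held 13–15 days in the greenhouse.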

[8] = system: Surinam grass; test: Test B pre-/postemergence herbicide test; format: in vivo, Urochloa decumbens; conditions: for Surinam Grass plant response rating: postemergence, visual rating, scale 0 (no effect) to 100 (complete control)
Outline: (§3)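 Response was scored visually 13 to 15 days after treatment against untreated greenhouse controls, 0 meaning no effect and 100 complete control. Formulations (solvent mixture plus surfactant) went onto soil after planting, onto foliage of 1- to 4-leaf plants, and onto 2-leaf plants in a flooded paddy set including rice and barnyardgrass.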

[9] = system: cocklebur; test: Test B pre-/postemergence herbicide test; format: in vivo, Xanthium strumarium; conditions: for Cocklebur plant response rating: postemergence, visual rating, scale 0 (no effect) to 100 (complete control)
Outline: as §2

[10] = system: corn; test: Test B pre-/postemergence herbicide test; format: in vivo, Zea mays; conditions: for Corn plant response rating: postemergence, visual rating, scale 0 (no effect) to 100 (complete control)
Outline: as §3

[11] = system: large crabgrass; test: Test B pre-/postemergence herbicide test; format: in vivo, Digitaria sanguinalis; conditions: for Crabgrass, Large plant response rating: postemergence, visual rating, scale 0 (no effect) to 100 (complete control)
Outline: as §3

[12] = system: giant foxtail; test: Test B pre-/postemergence herbicide test; format: in vivo, Setaria faberi; conditions: for Foxtail, Giant plant response rating: postemergence, visual rating, scale 0 (no effect) to 100 (complete control)
Outline: as §3

[13] = system: lambsquarters; test: Test B pre-/postemergence herbicide test; format: in vivo, Chenopodium album; conditions: for Lambsquarters plant response rating: postemergence, visual rating, scale 0 (no effect) to 100 (complete control)
Outline: as §3

[14] = system: morningglory; test: Test B pre-/postemergence herbicide test; format: in vivo, Ipomoea coccinea; conditions: for Morningglory plant response rating: postemergence, visual rating, scale 0 (no effect) to 100 (complete control)
Outline: as §2

[15] = system: pigweed; test: Test B pre-/postemergence herbicide test; format: in vivo, Amaranthus retroflexus; conditions: for Pigweed plant response rating: postemergence, visual rating, scale 0 (no effect) to 100 (complete control)
Outline: as §3

[16] = system: rice; test: Test B pre-/postemergence herbicide test; format: in vivo, Oryza sativa; conditions: preemergence
Outline: as §3

[17] = system: velvetleaf; test: Test B pre-/postemergence herbicide test; format: in vivo, Abutilon theophrasti; conditions: for Velvetleaf plant response rating: postemergence, visual rating, scale 0 (no effect) to 100 (complete control)
Outline: as §3

[18] = system: blackgrass; test: Test B postemergence herbicide test; format: in vivo, Alopecurus myosuroides; conditions: postemergence, visual rating, scale 0 (no effect) to 100 (complete control)
Outline: (§4)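 Each value is a visual 0–100 response rating taken against controls 13 to 15 days after treatment in the greenhouse. Plants received formulated chemical postemergence at the 1- to 4-leaf stage or, in flooded paddy, at the 2-leaf stage.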

[19] = system: wheat; test: Test B postemergence herbicide test; format: in vivo, Triticum aestivum; parameters: key to Wheat plant response rating: 0 = no effect, 100 = complete control; conditions: postemergence, visual rating, scale 0 (no effect) to 100 (complete control)
Outline: (§5)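 Read-out: visual comparison with controls, scored 0 to 100, where 100 means complete control and 0 no effect. Formulated chemicals were applied postemergence to plants 2–18 cm tall (1- to 4-leaf), or to flooded-paddy plants at the 2-leaf stage, then held 13 to 15 days under glass.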

[20] = system: wild oat; test: Test B postemergence herbicide test; format: in vivo, Avena fatua; conditions: postemergence, visual rating, scale 0 (no effect) to 100 (complete control)
Outline: as §5

[21] = system: rice; test: Test B flooded paddy test; format: in vivo, Oryza sativa; conditions: 1000 g ai/ha, visual rating, scale 0 to 100 (0 no effect, 100 complete control), 13 to 15 days
Outline: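 Postemergence plants were sprayed with formulated test chemicals at 2 to 18 cm height (1- to 4-leaf stage); paddy species were grown to the 2-leaf stage. After 13 to 15 days in a greenhouse, injury was rated visually against untreated controls on a 0–100 scale (0 = no effect, 100 = complete control).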

[22] = system: small flower umbrella sedge; test: Test B flooded paddy test; format: in vivo, Cyperus difformis; conditions: 1000 g ai/ha, visual rating, scale 0 to 100 (0 no effect, 100 complete control), 13 to 15 days
Outline: as §4

[23] = system: ducksalad; test: Test B flooded paddy test; format: in vivo, Heteranthera limosa; conditions: 1000 g ai/ha, visual rating, scale 0 to 100 (0 no effect, 100 complete control), 13 to 15 days
Outline: as §4

[24] = system: barnyardgrass; test: Test B flooded paddy test; format: in vivo, Echinochloa crus-galli; conditions: 1000 g ai/ha, visual rating, scale 0 to 100 (0 no effect, 100 complete control), 13 to 15 days
Outline: as §4

[25] = Postemergence, 500 g ai/ha, 0 to 100 scale, 0 no effect, 100 complete control
[26] = Postemergence, 2000 g ai/ha, 0 to 100 scale, 0 no effect, 100 complete control
[27] = Preemergence, 2000 g ai/ha, visual rating, 0 to 100 scale (0 no effect, 100 complete control)
[28] = preemergence, 500 g ai/ha, visual injury, 0 to 100 scale (0 no effect, 100 complete control)
[29] = 125 g ai/ha, 0 = no effect, 100 = complete control, preemergence
[30] = 500 g ai/ha, visual rating 0-100, 0 no effect, 100 complete control, preemergence

## Cc1nc(C(C)(C)C)sc1C(=O)Nc1cccc(C(=O)NCCF)c1 [Compound 200]
[1]; [25]
  Barnyardgrass plant response rating: 10
[1]; [26]
  Plant response rating, Barnyardgrass: 35
[1]; [27]
  Barnyardgrass plant response rating: 45
[1]; [28]
  Barnyardgrass plant response rating: 35
[2]; [25]
  Crabgrass, Large plant response rating: 10
[2]; [26]
  Plant response rating, Crabgrass, Large: 25
[2]; [27]
  Crabgrass, Large plant response rating: 75
[2]; [28]
  Crabgrass, Large plant response rating: 70
[3]; [25]
  Foxtail, Giant plant response rating: 0
[3]; [26]
  Plant response rating, Foxtail, Giant: 20
[3]; [27]
  Foxtail, Giant plant response rating: 60
[3]; [28]
  Foxtail, Giant plant response rating: 35
[4]; [25]
  Morningglory plant response rating: 35
[4]; [26]
  Plant response rating, Morningglory: 45
[4]; [27]
  Morningglory plant response rating: 60
[4]; [28]
  Morningglory plant response rating: 15
[5]; [25]
  Pigweed plant response rating: 50
[5]; [26]
  Plant response rating, Pigweed: 60
[5]; [27]
  Pigweed plant response rating: 95
[5]; [28]
  Pigweed plant response rating: 80
[6]; [25]
  Velvetleaf plant response rating: 10
[6]; [26]
  Plant response rating, Velvetleaf: 10
[6]; [27]
  Velvetleaf plant response rating: 35
[6]; [28]
  Velvetleaf plant response rating: 20
[7]; [29]
  Barnyardgrass plant response rating (0 to 100 scale): 0
[7]; [30]
  Plant response rating, Barnyardgrass: 20
[7]; 125 g ai/ha
  Barnyardgrass plant response rating: 0
[7]; 500 g ai/ha
  Barnyardgrass plant response rating: 10
[8]; [29]
  Surinam Grass plant response rating (0 to 100 scale): 0
[8]; [30]
  Plant response rating, Surinam Grass: 10
[8]; 125 g ai/ha
  Surinam Grass plant response rating: 10
[8]; 500 g ai/ha
  Surinam Grass plant response rating: 20
[9]; [29]
  Cocklebur plant response rating (0 to 100 scale): 0
[9]; [30]
  Plant response rating, Cocklebur: 0
[9]; 125 g ai/ha
  Cocklebur plant response rating: 10
[9]; 500 g ai/ha
  Cocklebur plant response rating: 20
[10]; [29]
  Corn plant response rating (0 to 100 scale): 0
[10]; [30]
  Plant response rating, Corn: 0
[10]; 125 g ai/ha
  Corn plant response rating: 10
[10]; 500 g ai/ha
  Corn plant response rating: 30
[11]; [29]
  Crabgrass, Large plant response rating (0 to 100 scale): 50
[11]; [30]
  Plant response rating, Crabgrass, Large: 90
[11]; 125 g ai/ha
  Crabgrass, Large plant response rating: 0
[11]; 500 g ai/ha
  Crabgrass, Large plant response rating: 10
[12]; [29]
  Foxtail, Giant plant response rating (0 to 100 scale): 0
[12]; [30]
  Plant response rating, Foxtail, Giant: 10
[12]; 125 g ai/ha
  Foxtail, Giant plant response rating: 10
[12]; 500 g ai/ha
  Foxtail, Giant plant response rating: 10
[13]; [29]
  Lambsquarters plant response rating (0 to 100 scale): 20
[13]; [30]
  Plant response rating, Lambsquarters: 80
[13]; 125 g ai/ha
  Lambsquarters plant response rating: 60
[13]; 500 g ai/ha
  Lambsquarters plant response rating: 60
[14]; [29]
  Morningglory plant response rating (0 to 100 scale): 0
[14]; [30]
  Plant response rating, Morningglory: 10
[14]; 125 g ai/ha
  Morningglory plant response rating: 0
[14]; 500 g ai/ha
  Morningglory plant response rating: 40
[15]; [29]
  Pigweed plant response rating (0 to 100 scale): 10
[15]; [30]
  Plant response rating, Pigweed: 90
[15]; 125 g ai/ha
  Pigweed plant response rating: 10
[15]; 500 g ai/ha
  Pigweed plant response rating: 40
[16]; 125 g ai/ha, 0 = no effect, 100 = complete control
  Rice plant response rating (0 to 100 scale): 0
[16]; 500 g ai/ha, visual rating 0-100, 0 no effect, 100 complete control
  Plant response rating, Rice: 10
[17]; [29]
  Velvetleaf plant response rating (0 to 100 scale): 0
[17]; [30]
  Plant response rating, Velvetleaf: 20
[17]; 125 g ai/ha
  Velvetleaf plant response rating: 10
[17]; 500 g ai/ha
  Velvetleaf plant response rating: 30
[18]; 125 g ai/ha
  Blackgrass plant response rating: 0
[18]; 500 g ai/ha
  Blackgrass plant response rating: 10
[19]; 125 g ai/ha
  Wheat plant response rating: 0
[19]; 500 g ai/ha
  Wheat plant response rating: 0
[20]; 125 g ai/ha
  Oat, Wild plant response rating: 0
[20]; 500 g ai/ha
  Oat, Wild plant response rating: 10
[21]
  Rice plant response rating: 0
[22]
  Sedge, Umbrella plant response rating: 50
[23]
  Ducksalad plant response rating: 0
[24]
  Barnyardgrass plant response rating: 0
